The values below come from ChEMBL document CHEMBL1201862, “PubChem BioAssay data set” (2004).

SMILES strings stand for the structures. The source made the active and inactive calls.

A short description of assay [1]: inhibitors of HIV Env-driven cell fusion, dose response, cherry-pick (AID 652057). Format: functional, cell-based.
A short description of assay [2]: inhibitors of clade B AD8 Env fusion, dose response, cell-based, cherry-pick (AID 652062).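 Also: luciferase signal from cell-cell fusion driven by HIV-1 clade B AD8 Env; potency is for inhibitors of fusion seen as a drop in luminescence.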 Format: functional.
In the next assay the target is T1, Cytochrome P450 1A2 (Homo sapiens, UniProt P05177).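 Also: PubChem cytochrome P450 panel assay, CYP1A2 panel member.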
T1 sequence (P05177 whole entry): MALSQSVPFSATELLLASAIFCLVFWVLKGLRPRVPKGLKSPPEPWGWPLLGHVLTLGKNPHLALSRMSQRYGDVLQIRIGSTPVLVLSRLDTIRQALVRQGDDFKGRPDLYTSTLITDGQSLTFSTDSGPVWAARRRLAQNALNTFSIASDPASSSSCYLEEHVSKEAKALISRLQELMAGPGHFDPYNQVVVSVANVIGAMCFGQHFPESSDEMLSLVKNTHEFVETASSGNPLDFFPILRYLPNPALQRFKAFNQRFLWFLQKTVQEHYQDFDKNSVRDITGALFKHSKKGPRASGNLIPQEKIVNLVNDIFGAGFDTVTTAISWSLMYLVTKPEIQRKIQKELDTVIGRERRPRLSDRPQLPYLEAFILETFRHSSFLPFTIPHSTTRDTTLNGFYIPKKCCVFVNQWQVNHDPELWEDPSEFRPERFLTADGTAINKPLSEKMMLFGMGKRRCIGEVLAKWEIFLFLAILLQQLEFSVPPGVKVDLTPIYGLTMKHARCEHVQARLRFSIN

For assay [3], the target named is Luciferin 4-monooxygenase (Photinus pyralis, UniProt P08659). Description: firefly luciferase enzyme inhibitors, dose response, biochemical, luminescence (AID 1891).
Assay [4] is described as follows: Luminescence Cell-Based Dose Confirmation HTS to Identify Inhibitors of Platelet Dense Granule Release. [Related pubchem assays: 1663 (Primary HTS), 1678 (Summary of Project)]. Format: functional.
Assay [5] has as its target T2, RNA-binding protein pos-1 (Caenorhabditis elegans, UniProt G5EF15).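 Also: purified POS-1 fused to maltose binding protein made in E. coli; potency of compounds blocking POS-1 binding to fluorescent RNA.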
T2 sequence (G5EF15 whole entry): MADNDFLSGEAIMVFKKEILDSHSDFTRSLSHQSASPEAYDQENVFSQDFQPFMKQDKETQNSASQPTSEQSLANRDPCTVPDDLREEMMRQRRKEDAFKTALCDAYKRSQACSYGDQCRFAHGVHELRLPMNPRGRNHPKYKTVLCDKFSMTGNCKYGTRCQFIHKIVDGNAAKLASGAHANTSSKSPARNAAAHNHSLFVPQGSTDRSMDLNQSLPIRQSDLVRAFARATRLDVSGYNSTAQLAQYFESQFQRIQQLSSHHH
Briefly: inhibitors of POS-1/mex-3 RNA binding, dose response, biochemical, fluorescence polarization (AID 1964). (Fluorescence polarisation rises when a labelled molecule tumbles more slowly, as on binding a larger partner.)

Assay [6] has as its target T3, Zinc finger protein mex-5 (Caenorhabditis elegans, UniProt Q9XUB2).
T3 sequence (Q9XUB2 whole entry): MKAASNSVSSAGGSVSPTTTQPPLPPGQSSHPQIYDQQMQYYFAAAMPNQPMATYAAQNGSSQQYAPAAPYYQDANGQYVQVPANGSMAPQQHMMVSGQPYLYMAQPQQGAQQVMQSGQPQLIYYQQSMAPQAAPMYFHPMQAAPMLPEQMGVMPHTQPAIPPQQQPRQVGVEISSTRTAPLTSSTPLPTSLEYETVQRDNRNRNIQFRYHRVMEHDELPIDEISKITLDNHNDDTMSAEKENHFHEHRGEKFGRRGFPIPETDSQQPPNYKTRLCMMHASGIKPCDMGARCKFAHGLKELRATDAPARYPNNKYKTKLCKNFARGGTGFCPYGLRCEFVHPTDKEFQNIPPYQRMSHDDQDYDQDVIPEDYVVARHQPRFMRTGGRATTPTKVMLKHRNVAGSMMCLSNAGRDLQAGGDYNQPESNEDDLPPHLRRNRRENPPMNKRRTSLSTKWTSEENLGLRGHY
Briefly: MEX-5/TCR-2 RNA interaction inhibitors, dose response, biochemical, C. elegans, fluorescence polarization (AID 1960).

Assay [7] can be described thus: Shn3 3'UTR reporter inhibitors, dose response, cell-based, Clone20 osteoblasts, firefly luciferase, cherry-picked (AID 624132).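 Also: firefly luciferase luminescence from reporter carrying the Shn3 3'UTR in osteoblasts.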 Format: functional.
Assay [8] can be described thus: control 3'UTR Renilla luciferase suppression, dose response, counter-screen for Shn3 inhibitor project, cell-based, Clone20-Shn3RL, cherry-picked (AID 624133). Format: functional.
In assay [9] the test system is BJ. Description: cytotoxicity toward BJ-TERT-LT-ST fibroblasts, dose response, cell-based, RAS-independent, luminescence (AID 1935).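 Also: BJ fibroblasts immortalized with TERT plus LT and ST oncogenes.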 The conditions noted are these: Homo sapiens. Format: functional.
Assay [10] has as its system BJ. Description: cytotoxicity toward BJ-TERT fibroblasts, dose response, cell-based, RAS-independent, luminescence (AID 1933). Particulars: Homo sapiens. Format: functional.
Assay [11] is described as follows: cytotoxicity toward DRD oncogenic fibroblasts, dose response, cell-based, non-viral oncogenic, luminescence (AID 1934). The conditions noted are these: Homo sapiens. Format: functional.
For assay [12], the system named is BJ. Briefly: cells. Format: functional, cell-based. The conditions noted are these: Homo sapiens.
The target in assay [13] is T4, DNA repair and recombination protein RAD54-like (Homo sapiens, UniProt Q92698).
T4 sequence (Q92698 whole entry): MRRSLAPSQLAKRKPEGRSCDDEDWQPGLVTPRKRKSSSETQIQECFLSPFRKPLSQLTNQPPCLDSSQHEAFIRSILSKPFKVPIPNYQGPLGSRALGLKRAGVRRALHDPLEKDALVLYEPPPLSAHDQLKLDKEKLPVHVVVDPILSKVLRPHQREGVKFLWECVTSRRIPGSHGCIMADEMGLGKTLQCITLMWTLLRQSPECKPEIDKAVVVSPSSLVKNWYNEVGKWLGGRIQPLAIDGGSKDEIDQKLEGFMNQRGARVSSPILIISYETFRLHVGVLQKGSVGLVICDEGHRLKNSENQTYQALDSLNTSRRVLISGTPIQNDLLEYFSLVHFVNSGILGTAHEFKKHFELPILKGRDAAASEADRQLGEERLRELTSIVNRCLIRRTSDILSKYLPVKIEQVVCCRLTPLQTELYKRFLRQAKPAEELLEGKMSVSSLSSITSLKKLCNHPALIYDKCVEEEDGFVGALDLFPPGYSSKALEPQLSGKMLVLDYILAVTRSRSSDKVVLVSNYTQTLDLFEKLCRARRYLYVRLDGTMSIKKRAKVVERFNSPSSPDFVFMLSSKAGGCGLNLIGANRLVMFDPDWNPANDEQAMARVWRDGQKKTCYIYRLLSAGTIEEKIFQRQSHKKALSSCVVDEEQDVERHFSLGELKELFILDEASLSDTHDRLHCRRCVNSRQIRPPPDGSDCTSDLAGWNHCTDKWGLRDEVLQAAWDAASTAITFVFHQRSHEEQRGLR
Briefly: inhibitors of human RAD54 branch migration, confirmation, biochemical, fluorescence, cherry-picked samples, dose series (AID 651657). Format: functional.

Assay [14] is described as follows: Luminescence Cell-Based Dose Response HTS to Identify Inhibitors of 5'UTR Stem-Loop Driven Prion Protein mRNA Translation in H4 Neuroglioblastoma Cells. [Related pubchem assays: 1827 (Project Summary), 1813 (Primary HTS)]. Format: functional.
Assay [15] is described as follows: inhibitors of SNCA 5'UTR-driven reporter translation, confirmation, H4 neuroglioma cells, luminescence (AID 1988). Format: functional, cell-based.
A short description of assay [16]: inhibitors of firefly luciferase expression or activity, dose response, H4 neuroglioma cells, luminescence (AID 1990). Format: functional, cell-based.
Assay [17] is described as follows: Luminescence Cell-Based Dose Retest to Confirm Inhibitors of Cancer Stem Cells. [Related pubchem assays (depositor defined):AID2717, AID2721]. Format: functional. Particulars: Homo sapiens.
Assay [18] can be described thus: microbe, parasite or virus in culture. Format: functional. The conditions noted are these: Mycobacterium tuberculosis.
Assay [19] concerns the target T5, Ubiquitin-conjugating enzyme E2 N (Homo sapiens, UniProt P61088).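 Also: Dose-response confirmation in a TR-FRET assay detecting UBC13-driven polyubiquitin chain formation, inhibition measured.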
T5 sequence (P61088 whole entry): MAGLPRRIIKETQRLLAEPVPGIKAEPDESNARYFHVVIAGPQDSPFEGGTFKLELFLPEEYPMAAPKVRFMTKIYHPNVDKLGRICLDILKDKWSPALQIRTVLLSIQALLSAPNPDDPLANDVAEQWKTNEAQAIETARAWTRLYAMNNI
Format: functional.

In assay [20] the target is T6, Polyadenylate-binding protein 1 (Homo sapiens, UniProt P11940). Briefly: PABP1 MLLE–PAM2 interaction inhibitors, dose response, miRNA deadenylation inhibitor project, biochemical, fluorescence polarization, Cy5-PAM2 peptide, secondary (AID 602260). Format: functional. Particulars: read-out: IC50_Mean.
For assay [21], the target named is T6, Polyadenylate-binding protein 1. Briefly: PABP1 MLLE–PAM2 binding inhibitor potency, dose response, biochemical, fluorescence polarization, FITC-PAM2 peptide (AID 602259). Format: functional. The conditions noted are these: read-out: IC50_Mean.
A further assay has as its system INS1. Description: beta cell apoptosis inhibitors, cytokine rescue, dose response, luminescence, retest (AID 449756).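 Also: cell death triggered by IL-1 beta plus TNF-alpha plus IFN-gamma mixture; protective hits raise ATP signal compared with cytokine alone wells.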 Format: functional, cell-based. Particulars: Rattus norvegicus.

Sequence of Luciferin 4-monooxygenase (P08659 whole entry): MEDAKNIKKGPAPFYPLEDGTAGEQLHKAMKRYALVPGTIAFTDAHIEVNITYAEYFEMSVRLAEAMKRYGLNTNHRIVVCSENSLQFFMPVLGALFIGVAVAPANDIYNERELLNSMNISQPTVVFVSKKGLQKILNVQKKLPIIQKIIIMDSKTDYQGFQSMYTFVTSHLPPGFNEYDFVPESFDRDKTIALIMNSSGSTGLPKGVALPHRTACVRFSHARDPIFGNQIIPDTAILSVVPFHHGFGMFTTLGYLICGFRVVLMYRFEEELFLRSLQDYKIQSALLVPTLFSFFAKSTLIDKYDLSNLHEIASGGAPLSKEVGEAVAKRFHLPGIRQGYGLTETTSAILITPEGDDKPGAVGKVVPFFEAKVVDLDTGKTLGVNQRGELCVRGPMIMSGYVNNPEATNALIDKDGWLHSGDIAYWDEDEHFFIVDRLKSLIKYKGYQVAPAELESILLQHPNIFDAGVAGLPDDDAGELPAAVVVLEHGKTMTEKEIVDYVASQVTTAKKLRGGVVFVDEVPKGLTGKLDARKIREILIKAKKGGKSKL
T6 sequence (P11940 whole entry): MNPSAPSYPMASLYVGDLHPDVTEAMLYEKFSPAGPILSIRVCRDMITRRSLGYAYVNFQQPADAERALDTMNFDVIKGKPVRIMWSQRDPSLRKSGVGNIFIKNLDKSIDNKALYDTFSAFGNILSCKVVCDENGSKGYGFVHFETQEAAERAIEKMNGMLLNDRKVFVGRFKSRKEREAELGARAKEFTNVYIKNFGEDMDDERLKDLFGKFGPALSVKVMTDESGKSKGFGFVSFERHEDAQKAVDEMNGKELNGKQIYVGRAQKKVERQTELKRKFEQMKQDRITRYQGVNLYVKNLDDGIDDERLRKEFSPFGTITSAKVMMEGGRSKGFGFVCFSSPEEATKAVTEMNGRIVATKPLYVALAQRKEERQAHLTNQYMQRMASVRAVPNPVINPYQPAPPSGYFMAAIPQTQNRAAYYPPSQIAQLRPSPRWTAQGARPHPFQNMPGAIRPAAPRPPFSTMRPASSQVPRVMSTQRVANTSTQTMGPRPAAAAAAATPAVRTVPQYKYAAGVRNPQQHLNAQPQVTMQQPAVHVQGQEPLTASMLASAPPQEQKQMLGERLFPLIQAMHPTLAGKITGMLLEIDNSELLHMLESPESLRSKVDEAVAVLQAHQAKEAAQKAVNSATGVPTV

As usually defined, the AC50 is the concentration at which the activity in the assay is half-maximal. Regarding `C[C@H]1CN([C@@H](C)CO)C(=O)c2cc(NS(C)(=O)=O)ccc2O[C@@H]1CN(C)Cc1ccc(Cl)c(Cl)c1`, the half-maximal activity concentration (AC50) in assay [1] is 48.9 µM (active).
For the molecule `COCCCn1c(-c2ccc(S(=O)(=O)N3CCOCC3)cc2)cs/c1=N/c1ccccc1`, the AC50 in assay [2] is 15.3 µM (active).
Take `C[C@@H]1CN([C@H](C)CO)S(=O)(=O)c2ccc(-c3ccccc3)cc2O[C@@H]1CN(C)Cc1ccccc1`: the AC50 in [1] was 31.8 µM (active).
Usually EC50 stands for the concentration needed to bring the measured effect to its halfway point. As for `CCOC(=O)c1c(NC(=O)c2c(C)noc2C)sc2c1CCCCC2`, the AC50 at Cytochrome P450 1A2 was 5.01 µM (inconclusive). Moreover, the EC50 in [3] and in assay [4] was > 112 µM (not active) each time.
Take `CCOC(=O)C1C(c2ccc(OC)c(OC)c2)c2c(n[nH]c2O)CC1(C)O` (stereo unspecified): the EC50 in assay [3] and in [4] was > 112 µM (not active) each time.
In the case of `CC1(OC(=O)c2cnc3ccccc3n2)C(=O)C=C2C=C(C3CC3)OC=C2C1=O` (stereo unspecified), the EC50 in assay [5] and in assay [6] was > 300 µM (not active) throughout.
For the molecule `CCC(=O)OC1(C)C(=O)C=C2C=C(c3ccc(C#N)cc3)OC=C2C1=O` (stereo unspecified), the figures for the EC50 in [5] and in [6] were 85.4 µM (active) and 40.8 µM (active), respectively.
For `C=CCn1cc(/C=N/Nc2nc3ccccc3[nH]2)c2ccccc21`, the values for the EC50 in [3] and in assay [4] were 45.1 µM (active) and > 112 µM (not active), respectively.
`Cc1c(C(=O)N(Cc2cccc(Br)c2)C2CCS(=O)(=O)C2)oc2ccccc12` (stereo unspecified): the values for the AC50 in assay [7] and in [8] were 35.9 µM (active) and > 70 µM (inactive), respectively.
In the case of `Cc1cccc2cc(CN(CC(C)C)S(=O)(=O)c3ccccc3)c(O)nc12`, the EC50 in assay [3] and in assay [4] was > 112 µM (not active) each time.
On to `CN1CCN(c2ccc([N+](=O)[O-])cc2C(=O)c2ccc(Cl)cc2)CC1`, for which the EC50 in the assay on BJ [9] is 11 µM (inconclusive); in the assay on BJ [10], 5.02 µM (active); in assay [11], 4.22 µM (active); in the assay with BJ [12] it was 33.7 µM (inconclusive).
For `C[C@H]1CN([C@@H](C)CO)C(=O)c2c(c3ccccc3n2C)-c2ccccc2CO[C@H]1CN(C)C(=O)CCC(F)(F)F`, the AC50 in assay [1] is < 0.26 µM (active); in assay [2], 0.411 µM (active).
In the case of `CCN1CCCC1CNC(=O)c1cc2c(-c3cccc(OC)c3)nn(C)c2s1` (stereo unspecified), the AC50 in assay [13] was 56.9 µM (active).
For the molecule `CC1(C)c2[nH]c3ccccc3c2C[C@@H]2C(=O)N(c3ccc(F)cc3F)C(=O)N21`, the EC50 in assay [5] was > 300 µM (not active); in assay [6] it was 46.8 µM (active).
With `CC(=O)Nc1ccc(Nc2nc(-c3c(C)nc4ccccn34)cs2)cc1`, the EC50 in assay [14] is 0.227 µM (active); with BJ [9], 0.654 µM (inconclusive); in the assay on BJ [10] it was 2.15 µM (active); in [11], 2.86 µM (inconclusive); with BJ [12], 70.7 µM (inconclusive); in assay [15] it was 0.13 µM (active). Also, in assay [16], the EC50 was > 120 µM (not active).
As for `Cc1ccn2c(NC3CCCCC3)c(-c3cccc(-c4cccc(Cl)c4)c3)nc2c1`, the AC50 in [17] is 2.85 µM (active). In addition, the CC50 in assay [18] is > 40 µM (active).
Regarding `CCN(CC)CC(C)OC(=O)c1ccccc1Cl` (stereo unspecified), the 50% effective concentration (EC50) in [3] and in [4] was > 112 µM (not active) in each case.
Take `O[C@@H](c1cc(C(F)(F)F)nc2c(C(F)(F)F)cccc12)[C@H]1CCCCN1`: the IC50 in assay [19] is > 20 µM (inactive). Further, the CC50 in assay [18] is 13.5 µM (active).
For the molecule `Cn1c(O)nc2cc(Cl)cnc21`, the concentration for a half-maximal effect (EC50) in assay [5] is 27 µM (active); in assay [6], 24.8 µM (active). Moreover, the figures for the IC50 in assay [20] and in assay [21] were > 66 µM (inactive) and 35.1 µM (inactive), respectively.
Take `CCOC(=O)CSc1nc2ccc(N)cc2s1`: the EC50 in [3] and in assay [4] was > 112 µM (not active) in each case.
Regarding `c1csc(-c2csc3ncnc(NCCCN4CCOCC4)c23)c1`, the results for the AC50 (in the assay with INS1; in [2]) were 9.18 µM (active) and 4.73 µM (active), respectively.
With `Oc1ccccc1-c1nc(NCCN2CCOCC2)c2ccccc2n1`, in [13], the AC50 is 29.5 µM (active).
For `Cc1ccc(NC(S)=Nc2ccc3c[nH]nc3c2)cc1`, the EC50 in [3] and in assay [4] was > 112 µM (not active) each time.
